Patent publication US8211606B2, “Coloring compound, yellow toner, sheet for heat-sensitive transfer recording, and ink” (Canon Kabushiki Kaisha, priority 2007, dated 2012)

Key:
[1] = Solubility check: solubility of coloring compound in chloroform at room temperature; type: physicochemical
Description: A solubility test was performed to measure the solubility of a coloring compound in chloroform at room temperature. The solubility was evaluated as described below.
A: 5% or more solubility in chloroform
B: 1% or more and less than 5% solubility in chloroform
C: less than 1% solubility in chloroform
A solubility of 1% or more in chloroform was determined to indicate high compatibility with resin.

[2] = Light resistance evaluation of coloring compound on paper, Sun Tester irradiation (color difference ΔE); type: physicochemical; conditions: 765 w/m^2, 50° C., irradiation time 20 hours, on CLC color copy paper
Description: A coloring compound was dissolved in tetrahydrofuran/cyclohexanone (=1/1 (v/v)) to prepare a 0.04 mol/L solution, which was then filtered with a filter (Φ0.2 μm). The prepared coloring compound solution was applied on CLC color copy paper (manufactured by Canon Inc.) by a bar coat method (Bar No. 3) and air-dried overnight. The test paper was then subjected to an irradiation experiment using Sun Tester (XF-180CPS, manufactured by Shimadzu Corporation) under the conditions of an illuminance of 765 w/m^2, a temperature of 50° C. and an irradiation time of 20 hours. The test paper before and after irradiation was analyzed by means of SpectroLino (from Gretag Machbeth). Optical density and chromaticity (L*, a*, b*) were determined on the basis of the L*a*b* color system. Color difference (ΔE) was calculated according to the following equation on the basis of measurements of the color characteristics.
The evaluation was performed as below.
A: The ΔE value is less than 10.
B: The ΔE value is 10 or more and less than 20.
C: The ΔE value is 20 or more.
The ΔE value of less than 20 was determined to indicate good light resistance.

SMILES	Solubility [1]	Light Resistance [2]
CCn1c(O)c(/N=N/c2ccccc2[N+](=O)[O-])c(C)c(C(N)=O)c1=O [(2), reference compound]	C (less than 1% solubility in chloroform)	C (The ΔE value is 20 or more.)
CCCCC(CC)Cn1c(O)c(N=Nc2cc(F)c(F)cc2[N+](=O)[O-])c(C)c(C(N)=O)c1=O (stereo not shown) [(7)]	A (5% or more solubility in chloroform)	B (The ΔE value is 10 or more and less than 20.)
CCCCC(CC)Cn1c(O)c(N=Nc2c([N+](=O)[O-])cc(F)c(F)c2F)c(C)c(C(N)=O)c1=O (stereo not shown) [(8)]	A (5% or more solubility in chloroform)	B (The ΔE value is 10 or more and less than 20.)
CCCCC(CC)Cn1c(O)c(N=Nc2c([N+](=O)[O-])cc(C(F)(F)F)cc2[N+](=O)[O-])c(C)c(C(N)=O)c1=O (stereo not shown) [(9)]	B (1% or more and less than 5% solubility in chloroform)	B (The ΔE value is 10 or more and less than 20.)
CCCCC(CC)Cn1c(O)c(N=Nc2c(Br)cc(C(F)(F)F)cc2[N+](=O)[O-])c(C)c(C(N)=O)c1=O (stereo not shown) [(10)]	B (1% or more and less than 5% solubility in chloroform)	A (The ΔE value is less than 10.)
CCCCC(CC)Cn1c(O)c(N=Nc2ccc(C#N)cc2[N+](=O)[O-])c(C)c(C(N)=O)c1=O (stereo not shown) [(11)]	A (5% or more solubility in chloroform)	A (The ΔE value is less than 10.)
CCCCC(CC)Cn1c(O)c(N=Nc2ccc(C(F)(F)F)cc2[N+](=O)[O-])c(C)c(C(N)=O)c1=O (stereo not shown) [(12)]	A (5% or more solubility in chloroform)	A (The ΔE value is less than 10.)
CCn1c(O)c(N=Nc2ccc(C(F)(F)F)cc2[N+](=O)[O-])c(-c2ccccc2)c(C(=O)NC(C)(C)C)c1=O [(13)]	A (5% or more solubility in chloroform)	B (The ΔE value is 10 or more and less than 20.)
CCCCC(C)(CC)NC(=O)c1c(C)c(N=Nc2ccc(C(F)(F)F)cc2[N+](=O)[O-])c(O)[nH]c1=O (stereo not shown) [(14)]	B (1% or more and less than 5% solubility in chloroform)	A (The ΔE value is less than 10.)
Cc1c(N=Nc2ccccc2[N+](=O)[O-])c(O)n(-c2ccccc2)c(=O)c1C(N)=O [(15)]	B (1% or more and less than 5% solubility in chloroform)	A (The ΔE value is less than 10.)
Cc1c(N=Nc2ccccc2[N+](=O)[O-])c(O)n(Cc2ccccc2)c(=O)c1C(N)=O [(16)]	B (1% or more and less than 5% solubility in chloroform)	A (The ΔE value is less than 10.)
CCCCC(CC)Cn1c(O)c(N=Nc2ccccc2[N+](=O)[O-])c(C)c(C(=O)NC2CCCC2)c1=O (stereo not shown) [(17)]	A (5% or more solubility in chloroform)	B (The ΔE value is 10 or more and less than 20.)
CCCCC(CC)Cn1c(O)c(N=Nc2ccc(C(F)(F)F)cc2[N+](=O)[O-])c(C)c(C(=O)NCc2ccccc2)c1=O (stereo not shown) [(18)]	A (5% or more solubility in chloroform)	B (The ΔE value is 10 or more and less than 20.)
CCCCC(CC)Cn1c(O)c(/N=N/c2ccccc2[N+](=O)[O-])c(C)c(C#N)c1=O (stereo not shown) [Comparative Compound (1), reference compound]	B (1% or more and less than 5% solubility in chloroform)	C (The ΔE value is 20 or more.)
CCCCC(CC)Cn1c(O)c(/N=N/c2ccccc2[N+](=O)[O-])c(C)c(C(N)=O)c1=O (stereo not shown) [Compound (4)]	B (1% or more and less than 5% solubility in chloroform)	A (The ΔE value is less than 10.)
CCCCC(CC)Cn1c(O)c(/N=N/c2ccc(C(F)(F)F)cc2[N+](=O)[O-])c(C)c(C(=O)NC(C)(C)C)c1=O (stereo not shown) [Compound (5)]	A (5% or more solubility in chloroform)	A (The ΔE value is less than 10.)
CCCCC(CC)Cn1c(O)c(/N=N/c2ccc(F)cc2[N+](=O)[O-])c(C)c(C(N)=O)c1=O (stereo not shown) [Compound (6)]	B (1% or more and less than 5% solubility in chloroform)	A (The ΔE value is less than 10.)
